Assay results reported in patent US20250313560A1, “Novel bicyclic benzylamido pyridine derivatives as SOS1 inhibitors” (Boehringer Ingelheim International GmbH, priority 2024, published 2025).
pIC50: −log10 of the molar value. Read-outs that look alike come from different tables or passages of the source.

Columns and labels:
SOS1 and KRAS G12C = SOS1 and KRAS G12C (Homo sapiens (Human), UniProt Q07889); assay: KRAS::SOS1 AlphaScreen binding assay (KRAS G12C); conditions: average of at least two measurements
Chain of SOS1 and KRAS G12C (Q07889 564-1049, stated change not applied): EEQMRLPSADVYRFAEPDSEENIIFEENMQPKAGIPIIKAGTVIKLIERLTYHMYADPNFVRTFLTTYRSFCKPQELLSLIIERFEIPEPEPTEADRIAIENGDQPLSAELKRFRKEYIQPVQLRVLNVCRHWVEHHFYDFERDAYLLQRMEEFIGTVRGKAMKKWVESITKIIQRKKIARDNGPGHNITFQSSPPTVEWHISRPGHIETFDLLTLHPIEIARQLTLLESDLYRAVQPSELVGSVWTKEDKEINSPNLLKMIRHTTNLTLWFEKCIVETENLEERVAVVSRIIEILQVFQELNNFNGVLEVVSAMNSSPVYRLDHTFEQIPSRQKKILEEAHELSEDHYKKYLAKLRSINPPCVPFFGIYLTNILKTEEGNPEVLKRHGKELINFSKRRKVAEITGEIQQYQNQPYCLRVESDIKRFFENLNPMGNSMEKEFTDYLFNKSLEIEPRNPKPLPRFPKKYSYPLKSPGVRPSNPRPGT
Procedure: (§1) Low IC50 values are indicative of high potency of the SOS1 inhibitor compound in this assay setting:
(§2) • GST-tagged SOS1 (564_1049_GST_TEV_ECO) produced in-house • 6xHis-Tev-K-RasG12D/G12C(1-169)Avi produced in-house • GDP (Sigma Cat No G7127) • AlphaLISA Glutathione Acceptor Beads (PerkinElmer, Cat No AL109) • AlphaScreen Streptavidin Donor Beads (PerkinElmer Cat No 6760002) • Assay plates: Proxiplate-384 PLUS, white (PerkinElmer, Cat No 6008289)
(§3) [formula] • KRAS::SOS1 GDP mix: • 7.5 nM (final assay concentration) K-RasG12C, 10 nM (final assay concentration) K-RasG12D, 10 μM (final assay concentration) GDP and 5 nM (final assay concentration) GST-SOS1 are mixed in assay buffer prior to use and kept at rt. Bead mix: • AlphaLISA Glutathione Acceptor Beads and AlphaScreen Streptavidin Donor Beads are mixed in the dark in assay buffer at a concentration of 10 μg/mL (final assay concentration) each prior to use and kept at rt.
(§4) Compounds are diluted to a final start concentration of 100 μM and are tested in duplicate. Assay-ready plates (ARPs) are generated using an Access Labcyte Workstation with a Labcyte Echo 550 or 555 acoustic dispenser. For compound a start concentration of 100 μM, 150 nL of compound solution is transferred per well in 11 concentrations in duplicate with serial 1:5 dilutions.
(§5) The assay is run using a fully automated robotic system in a darkened room below 100 Lux. 10 μL of KRAS::SOS1 GDP mix is added into columns 1-24 to the 150 nL of compound solution (final dilution in the assay 1:100, final DMSO concentration 1%).
(§6) After a 30 minute incubation time, 5 μL of bead mix is added into columns 1-23. Plates are kept at rt in a darkened incubator. After a further 60 minutes incubation, the signal is measured using a PerkinElmer Envision HTS Multilabel Reader using the AlphaScreen specifications from PerkinElmer. Each plate contains the following controls:
(§7) diluted DMSO+KRAS::SOS1 GDP mix+bead mix
(§8) diluted DMSO+KRAS::SOS1 GDP mix
(§9) Result calculation: IC50 values are calculated and analyzed using a 4 parametric logistic model.
(§10) Table 1: Inhibition values for KRAS G12C as well as for KRAS G12D. […] The value indicates an average value of at least two measurements.

SOS1 and KRAS G12D = SOS1 and KRAS G12D (Homo sapiens (Human), UniProt Q07889); assay: KRAS::SOS1 AlphaScreen binding assay (KRAS G12D); conditions: average of at least two measurements
Chain of SOS1 and KRAS G12D (Q07889 564-1049, stated change not applied): as above
Procedure: as §1, §2, §3, §4, §5, §6, §7, §8, §9, §10

[1] = test system: ERK phosphorylation in NCI-H358 SOS2 KO cells (KRAS G12C); assay: Erk phosphorylation assay; assay type: cell-based, human; conditions: EGF stimulated, average of at least two measurements, read-out: pERK IC50
Procedure: Low IC50 values are indicative of high potency of the SOS1 inhibitor compounds in this assay setting.
ERK phosphorylation assays are performed using the following human cell line: • NCI-H358 SOS2 KO (Hofmann, Gmachl, Ramharter et al, Cancer Discov. 2021, 11(1):142-15): human lung cancer with a KRAS G12C mutation;
NCI-H358 SOS2 KO are seeded at 50000 cells per well in 60 μL of DMEM with 2% FBS, in Greiner TC 384 plates. The cells are incubated overnight in an incubator at 37° C. and 5% CO2 in a humidified atmosphere. 60 nL compound solution (10 mM DMSO stock solution) is then added using a Beckman Coulter Labcyte Echo 550 device. After 50 min incubation in the aforementioned incubator, 5 nl EGF are added to each well for a final concentration of approx. 8 ng/mL using a Beckman Coulter Labcyte Echo 550 device and cells are incubated for another 10-15 minutes before lysis. The medium is removed, and the cells are lysed by addition of 20 μL of 1.6-fold lysis buffer from the AlphaLISA SureFire Ultra pERK1/2 (Thr202/Tyr204) Assay Kit with added protease inhibitors. After 20 minutes of incubation at rt with shaking, 6 μL of each lysate sample is transferred to a 384-well Proxiplate and analyzed for pERK (Thr202/Tyr204) with the AlphaLISA SureFire Ultra pERK1/2 (Thr202/Tyr204) Assay Kit. 3 μL Acceptor Mix and 3 μL Donor Mix are added under subdued light and incubated for 2 h at rt in the dark, before the signal is measured on a Perkin Elmer Envision plate reader using 384 AlphaScreen settings for Proxiplates. Data are fitted by iterative calculation with variable hill slope. The sigmoidal curve slope is fitted using a default fitting curve to ascertain IC50 values.
Table 2: Erk Phosphorylation assay. The value indicates an average value of at least two measurements.

P450 3A4 = P450 3A4 (Homo sapiens (Human), UniProt P08684); assay: Cytochrome P450 isoenzyme inhibition assay (P450 3A4, midazolam); assay type: in vitro ADME; conditions: human liver microsomes, Midazolam as substrate; read-out: CYP3A4 inhibition IC50
Chain of P450 3A4 (P08684 whole entry): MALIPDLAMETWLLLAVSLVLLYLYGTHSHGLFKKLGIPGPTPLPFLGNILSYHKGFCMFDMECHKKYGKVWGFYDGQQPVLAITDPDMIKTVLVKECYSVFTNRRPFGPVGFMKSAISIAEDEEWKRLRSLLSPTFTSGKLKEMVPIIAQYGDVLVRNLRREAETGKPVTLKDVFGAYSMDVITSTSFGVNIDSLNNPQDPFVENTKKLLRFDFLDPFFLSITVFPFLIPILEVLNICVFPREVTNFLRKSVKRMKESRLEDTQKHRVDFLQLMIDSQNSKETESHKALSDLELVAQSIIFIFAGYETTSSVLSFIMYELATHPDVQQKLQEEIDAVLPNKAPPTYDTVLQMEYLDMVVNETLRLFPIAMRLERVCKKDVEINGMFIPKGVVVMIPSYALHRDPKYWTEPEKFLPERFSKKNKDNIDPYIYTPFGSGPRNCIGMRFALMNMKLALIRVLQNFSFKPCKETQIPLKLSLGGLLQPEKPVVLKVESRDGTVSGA
Procedure: For the following cytochrome P450 isoenzymes, these substrates and metabolic reactions are monitored: P450 3A4: hydroxylation of Midazolam (MDZ).
The final incubation volume contains TRIS buffer (0.1 M), MgCl2 (5 mM), a certain concentration of human liver microsomes dependent on the P450 isoenzyme measured (P450 3A4: 0.1 mg/ml) and a certain concentration of the individual substrate for each isoenzyme (P450 3A4: Midazolam 5 μM).
The effect of the test compound is determined at five different concentrations in duplicate (e.g. highest concentration 50 μM with subsequent serial 1:4 dilutions) or without test compound (high control). Following a short preincubation period, reactions are started with the cofactor (NADPH, 1 mM) and stopped by cooling the incubation down to 8° C. and subsequently by addition of one volume of ACN. An internal standard solution—usually the stable isotope of the formed metabolite—is added after quenching of incubations. Peak area analyte (=metabolite formed) and internal standard is determined by LC-MS/MS. The resulting peak area ratio analyte to internal standard in these incubations is compared to a control activity containing no test compound. Within each of the assay runs, the IC50 of a positive control inhibitor dependent on the P450 isoenzyme measured (P450 3A4: ketoconazole) is determined. The assay results are plotted against compound concentrations to calculated IC50 values (half maximal inhibitory concentrations) for inhibitory compounds utilizing Software IDBS E-WorkBook.
Table 4: Inhibition of P450 isoenzyme 3A^4.

human hepatocytes = assay: Metabolic stability in human hepatocytes; conditions: 1 μM test compound, 50% human serum, percentage of liver blood flow
Procedure: The metabolic degradation of a test compound is performed with hepatocytes in suspension. After recovery from cryopreservation, human hepatocytes are diluted in Dulbecco's modified eagle medium (supplemented with 3.5 μg glucagon/500 mL, 2.5 mg insulin/500 mL, 3.75 mg hydrocortisone/500 mL, 50% human serum) to obtain a final cell density of 1.0×10^6 cells/mL. Following a preincubation in a cell culture incubator (37° C., 10% CO2), test compound dissolved in DMSO is mixed with the hepatocyte suspension, resulting in a final test compound concentration of 1 μM and a final DMSO concentration of 0.05%.
The cell suspension is incubated at 37° C. (cell culture incubator, horizontal shaker) and samples are removed from the incubation after 0, 0.5, 1, 2, 4 and 6 hours. Samples are quenched with acetonitrile (containing internal standard) and pelleted by centrifugation. The supernatant is transferred to a deep-well plate and prepared for analysis of decline of parent compound by HPLC-MS/MS.
The percentage of remaining test compound is calculated using the peak area ratio (test compound/internal standard) of each incubation time point relative to the time point 0 peak area ratio. The log-transformed data are plotted versus incubation time, and the absolute value of the slope obtained by linear regression analysis is used to estimate in vitro half-life (T1/2).
CL_[sequence]_IN VIVO[mL/min/kg]=(CL_[sequence][μL/min/10^6cells]×hepatocellularity[10^6cells/g liver]×liver factor[g/kg body weight])/1000
Hepatic in vivo blood clearance (CL) is predicted according to the well-stirred liver model considering an average liver blood flow (QH) of 20.7 mL/min/kg:
CL[mL/min/kg]=CL_[sequence]_IN VIVO[mL/min/kg]×hepatic blood flow[mL/min/kg]/(CL_[sequence]_IN VIVO[mL/min/kg]+hepatic blood flow[mL/min/kg])
Results are expressed as percentage of hepatic blood flow:
QH[%]=CL[mL/min/kg]/hepatic blood flow[mL/min/kg])

CYP3A4 = CYP3A4 (Homo sapiens (Human), UniProt P08684); assay: Mechanism-based inhibition of CYP3A4 assay (MBI 3A4); assay type: in vitro ADME; conditions: human liver microsomes, midazolam substrate, hydroxy-midazolam formation after 30 min preincubation relative to 0 min; for inhibition at 30 min: human, probe midazolam 15 μM (hydroxy-midazolam formation), read-out: MBI inhibition % ctrl. [%] with MDZ
Chain of CYP3A4 (P08684 whole entry): as above
Procedure: Mechanism-Based Inhibition of CYP3A4 assay (MBI 3A4): The mechanism-based inhibition towards CYP3A4 is assayed in human liver microsomes with midazolam as substrate. The test compounds and water control (wells w/o test compound) are preincubated in presence of NADPH (1 mM) with human liver microsomes (0.2 mg/mL) at a concentration of 0, 5 and 25 μM for 0, 10 and 30 min. After preincubation, the incubate is diluted 1:10 (to 0.02 mg/mL) and the substrate midazolam (15 μM) is added for the main incubation (10 min). The main incubation is quenched with ACN and the formation of hydroxy-midazolam is quantified via LC/MS-MS. The formation of hydroxy-midazolam from the 30 min preincubation relative to the formation from the 0 min preincubation is used as a readout. Values of less than 100% mean that the substrate midazolam is metabolized to a lower extent upon 30 min preincubation compared to 0 min preincubation. In general, low effects upon 30 min preincubation are desired (corresponding to values close to 100%/not different to the values determined with water control).
Table 5: Mechanism-based inhibition of P450 isoenzyme 3A4 with midazolam as substrate.

[2] = Homo sapiens, NCI-H358, NCI-H358 SOS2 KO cells

Row | SMILES | IC50 (SOS1 and KRAS G12C) [nM] | IC50 (SOS1 and KRAS G12D) [nM] | pIC50 ([1]; NCI-H358 SOS2 KO cells) | pIC50 (P450 3A4) | Hepatic clearance - QH[%] in human hepatocytes (human hepatocytes) [%] | pIC50 [1, 2] | inhibition at 30 min (CYP3A4) [%] | MBI inhibition % ctrl. [%] with MDZ (CYP3A4) [%]
1 | C[C@@H](NC(=O)c1cc(N2CCC(NC3CCCC3(C)O)CC2)c2ncnn2c1)c1cccc(C(F)(F)F)c1F (single isomer, unassigned) [Example trans-E53a] | 24 | 24 | 6.84 | < 4.30 | 45 | – | – | –
2 | CC(C)N1CC=C(c2cc(C(=O)N[C@H](C)c3cccc(C(F)(F)F)c3F)cn3cnnc23)CC1 [Example E83] | 30 | 26 | – | < 4.30 | – | 6.88 | 86 | –
3 | C[C@@H](NC(=O)c1cc(N2CCC(N3CCCCC3)CC2)c2ncnn2c1)c1cccc(C(F)(F)F)c1F [Example E49] | 49 | 43 | – | < 4.30 | 23 | 6.60 | – | –
4 | C[C@@H](NC(=O)c1cc(N2CCC(N(C)CC3(O)CC3)CC2)c2ncnn2c1)c1cccc(C(F)F)c1F [Example E13] | 52 | 54 | – | < 4.30 | 21 | 6.54 | – | –
5 | C[C@@H](NC(=O)c1cc(N2CCC(N3CCO[C@H](CO)C3)CC2)c2ncnn2c1)c1cccc(C(F)F)c1F [Example E14] | 69 | 51 | – | < 4.30 | 31 | 6.31 | – | –
6 | C[C@@H](NC(=O)c1cc(N2CCC(N3CCCC(O)CC3)CC2)c2ncnn2c1)c1cccc(C(F)(F)F)c1F (stereo partly shown) [Example E43b] | – | – | – | – | 25 | – | – | –
7 | C[C@@H](NC(=O)c1cc(N2CCC(N3CC4CC4C3CO)CC2)c2ncnn2c1)c1cccc(C(F)F)c1F (single isomer, unassigned) [Example cis-E11b] | 28 | 19 | 6.84 | < 4.30 | 27 | – | – | –
8 | C[C@@H](NC(=O)c1cc([C@H]2CC[C@H](N3CCC(F)C(O)C3)CC2)c2ncnn2c1)c1cccc(C(F)(F)F)c1F (single isomer, unassigned) [Example trans-E70a] | 29 | 34 | – | < 4.30 | 25 | 6.59 | – | –
9 | C[C@@H](NC(=O)c1cc(N2CCC(N3CCO[C@@H](CO)C3)CC2)c2ncnn2c1)c1cccc(C(F)F)c1F [Example E15] | 68 | 46 | – | < 4.30 | 31 | 6.26 | – | –
10 | C[C@@H](NC(=O)c1cc(N2CCC(N3CCCC(O)CC3)CC2)c2ncnn2c1)c1cccc(C(F)F)c1F (single isomer, unassigned) [Example E17a] | 39 | 28 | 7.03 | < 4.30 | 13 | – | – | –
11 | C[C@@H](NC(=O)c1cc(N2CCC(N3CC4CC4C3CO)CC2)c2ncnn2c1)c1cccc(C(F)F)c1F (single isomer, unassigned) [Example cis-E11a] | 22 | 15 | – | < 4.30 | 38 | 6.76 | – | –
12 | C[C@@H](NC(=O)c1cc(N2CCC(NC3COCC3O)CC2)c2ncnn2c1)c1cccc(C(F)(F)F)c1F (single isomer, unassigned) [Example cis-E41a] | 50 | 38 | 6.33 | < 4.30 | 37 | – | – | –
13 | C[C@@H](NC(=O)c1cc(N2CCC(N3CCCC(O)CC3)CC2)c2ncnn2c1)c1cccc(C(F)(F)F)c1F (single isomer, unassigned) [Example E43b] | 34 | 35 | 7.00 | < 4.30 | – | – | – | 94
14 | C[C@@H](NC(=O)c1cc(N2CC3CCC(C2)N3C)c2nncn2c1)c1cccc(C(F)(F)F)c1F [Example E76] | 49 | 36 | – | < 4.30 | – | 6.64 | 84 | –
15 | C[C@@H](NC(=O)c1cc(N2CCC3CCNC3C2)c2ncnn2c1)c1cccc(C(F)(F)F)c1F (single isomer, unassigned) [Example cis-E52a] | 59 | 58 | 6.94 | < 4.30 | 7 | – | – | –
16 | C[C@@H](NC(=O)c1cc(N2CCC(N3CCC4(CC4)C3)CC2)c2ncnn2c1)c1cccc(C(F)(F)F)c1F [Example E33] | 80 | 73 | – | < 4.30 | 15 | 6.49 | – | –
